According to article PMC12855270, “Exceptionally selective voltage-sensor trapping of NaV1.5 channels by Mg-protoporphyrin impairs cancer cell migration” (Scientific Reports, 2026):
Like-named read-outs stand apart in the source and are kept apart here.

Tests used:
[1] = molecular target: T1, human NaV1.5 (hNaV1.5) (Homo sapiens, UniProt Q14524); conditions: cited from earlier work
[2] = molecular target: T1, human NaV1.5 (hNaV1.5); conditions: for effect on hNaV1.5 current / remaining peak inward current: 1 µM extracellular, 5 min, -30 mV; for IC50: read-out: IC50 of hNaV1.5 current inhibition (Hill fit, constrained), current after 5 min, Hill coefficient constrained to 1 and remaining current to zero
[3] = system: MDA-MB-231 cells; experiment: wound-healing assay, MDA-MB-231; type: cell-based, human; conditions: for gap closure (cell migration) in wound-healing assay: 100 nM, 4 h, 2% FBS, MDA-MB-231
[4] = molecular target: endogenous NaV-channel current in MDA-MB-231 cells (Homo sapiens, UniProt Q14524); experiment: whole-cell patch-clamp of endogenous NaV-channel current in MDA-MB-231 cells; type: cell-based
endogenous NaV-channel current in MDA-MB-231 cells, sequence (Q14524 711-950): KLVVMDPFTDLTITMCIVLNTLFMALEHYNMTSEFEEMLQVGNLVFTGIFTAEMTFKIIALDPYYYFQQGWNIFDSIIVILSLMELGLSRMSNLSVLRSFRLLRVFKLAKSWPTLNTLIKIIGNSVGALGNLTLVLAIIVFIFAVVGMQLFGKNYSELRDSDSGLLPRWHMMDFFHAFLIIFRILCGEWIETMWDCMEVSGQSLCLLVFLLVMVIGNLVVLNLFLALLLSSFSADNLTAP

[5] = system: xenografted NaV1.5-expressing human breast cancer cells; conditions: mouse xenograft model; cited from earlier work
[6] = system: SW-480 cells; experiment: wound-healing assay, SW-480; type: cell-based, human
Method: (§1) Human embryonic kidney 293 T cells (HEK293T, from CAMR; Porton Down, Salisbury, UK) were cultured in Dulbecco’s Modified Eagle’s Medium (DMEM) with Nutrient Mixture F-12 (Gibco). Mouse neuroblastoma cells (Neuro-2A, German Collection of Microorganisms and Cell Cultures, DSMZ, Braunschweig, Germany) were cultured in DMEM. The breast cancer cell lines MDA-MB-231 (DSMZ) and T-47D (American Type Culture Collection, ATCC) were cultured in RPMI 1640 medium (Sigma, R7388), while the colorectal cancer cell lines SW-480 (DSMZ) and SW-48 (ATCC) were maintained in DMEM. Media were supplemented with 10% FBS, and the cells were incubated at 37 °C in a humidified atmosphere containing 5% or 10% (Neuro-2A) CO2.
(§2) Cells (50,000 to 70,000 per well) were seeded in a 48-well plate (Greiner Bio-One, Frickenhausen, Germany) and cultured for one day in their respective culture media supplemented with 10% FBS. Upon achieving approximately 90% confluency, a 200 µl sterile pipette tip was used to create a linear scratch (wound) in each well. Subsequently, the cells were rinsed with phosphate-buffered saline (PBS) and the medium was replaced with the same formulation containing only 2% FBS to minimize cell proliferation and to emphasize cell migration. […] Images were analyzed with ImageJ (NIH, Bethesda, MD, USA) using the “wound_healing_size_tool_updated” plugin[46] to quantify wound areas.

[7] = system: SW-48 cells; experiment: wound-healing assay, SW-48; type: cell-based, human
Method: as §1, §2

[8] = molecular target: T2, human BKCa channel (KCa1.1, KCNMA1) (Homo sapiens, UniProt Q12791); experiment: BKCa currents in inside-out patches (HEK293T); type: biochemical; conditions: 1 µM to intracellular side, 1 µM free Ca2+, 80 mV
T2 construct: expressed in transfected cells; host or cells: HEK293T
T2 sequence (Q12791 1-1178 isoform Q12791-5): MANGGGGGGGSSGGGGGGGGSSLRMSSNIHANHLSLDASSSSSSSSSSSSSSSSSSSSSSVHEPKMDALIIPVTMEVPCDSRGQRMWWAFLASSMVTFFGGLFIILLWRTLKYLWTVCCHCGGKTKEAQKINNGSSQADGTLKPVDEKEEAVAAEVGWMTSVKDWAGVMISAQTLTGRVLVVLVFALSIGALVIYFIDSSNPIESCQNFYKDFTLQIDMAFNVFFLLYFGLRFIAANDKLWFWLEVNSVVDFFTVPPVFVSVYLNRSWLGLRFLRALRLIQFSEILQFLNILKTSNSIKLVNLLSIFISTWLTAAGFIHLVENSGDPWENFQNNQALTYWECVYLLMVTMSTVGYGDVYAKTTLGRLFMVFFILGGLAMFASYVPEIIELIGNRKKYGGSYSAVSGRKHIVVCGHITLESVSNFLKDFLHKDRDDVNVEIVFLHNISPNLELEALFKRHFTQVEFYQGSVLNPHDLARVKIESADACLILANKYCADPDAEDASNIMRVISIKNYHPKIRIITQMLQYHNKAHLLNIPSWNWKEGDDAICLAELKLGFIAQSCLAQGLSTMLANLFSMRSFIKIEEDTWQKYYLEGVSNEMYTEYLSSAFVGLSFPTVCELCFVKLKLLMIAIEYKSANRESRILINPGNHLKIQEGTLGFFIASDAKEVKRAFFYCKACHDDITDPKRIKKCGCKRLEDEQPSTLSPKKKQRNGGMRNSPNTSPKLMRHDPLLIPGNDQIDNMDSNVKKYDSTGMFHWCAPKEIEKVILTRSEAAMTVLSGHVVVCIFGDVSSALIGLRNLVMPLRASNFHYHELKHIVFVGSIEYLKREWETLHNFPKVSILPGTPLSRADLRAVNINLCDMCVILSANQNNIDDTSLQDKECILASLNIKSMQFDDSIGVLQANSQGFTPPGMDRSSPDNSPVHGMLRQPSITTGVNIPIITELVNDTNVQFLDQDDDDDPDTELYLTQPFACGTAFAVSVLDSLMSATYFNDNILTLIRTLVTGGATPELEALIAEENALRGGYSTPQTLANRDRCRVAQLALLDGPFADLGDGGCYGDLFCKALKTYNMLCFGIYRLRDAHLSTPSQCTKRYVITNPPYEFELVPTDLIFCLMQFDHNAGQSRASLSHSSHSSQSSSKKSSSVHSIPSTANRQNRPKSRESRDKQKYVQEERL
Source text: The coding sequence of human NaV1.5 (hNaV1.5, SCN5A, Acc. no. M77235) was inserted into pRC/CMV vector plasmids and expressed in HEK293T cells as described previously. The following NaV constructs were used in a similar manner: mNaV1.5 (mouse, AJ271477.1), hNaV1.2 (NM001040143), hNaV1.4 (AAO83647), hNaV1.7 (NP002968), and hNaV1.8 (Q9Y5Y9.2). The neonatal splice variant of hNaV1.5 (nhNaV1.5) was used as described by Schroeter et al.[45]. Recombinant DNAs for all NaV subgroups were engineered using PCR-based methods and verified by DNA sequencing. For the functional evaluation of BKCa channels (KCa1.1), we used human KCNMA1 (Acc. no. U11058).
Cells were transfected with the channel-coding plasmids using ROTI®Fect (Carl Roth, Karlsruhe, Germany). Visualization of transfected cells was achieved by co-expressing green fluorescent protein or in the case of BKCa channels, CD8 + with subsequent use of anti-CD8 coated microbeads. Neuro-2A cells were utilized for the expression of hNaV1.8 channels; all other constructs were expressed in HEK293T cells. Ionic currents were recorded 1–2 days after transfection.
Currents of BKCa channels were measured in inside-out patches after expression in HEK293T cells, using an EPC10 amplifier (HEKA Elektronik) and PACHMASTER NEXT acquisition software (Multi-Channel Systems GmbH, MCS, Reutlingen, Germany). The holding voltage was -90 mV, and currents were recorded for depolarization steps up to 80 mV. Pipettes with resistances of 1.8–2.5 MΩ were used. The extracellular (pipette) solution contained (in mM): 138 NaCl, 4 KCl, 2 CaCl2, 2 MgCl2, and 10 HEPES, pH 7.4 (NaOH); the intracellular (bath) solution with about 1 µM free Ca^2+ contained: 135 KCl, 8.63 CaCl2, 2 MgCl2, 10 EGTA, and 10 HEPES, pH 7.4 (KOH).
All recordings were obtained at room temperature (20–23 °C). Metal protoporphyrins, diluted from stock solutions in DMSO, were applied by adding 1/3 of the final bath volume and mixing. Transmission and fluorescence light sources were turned off during data acquisition.

[9] = molecular target: T2, human BKCa channel (KCa1.1, KCNMA1); conditions: applied to the intracellular side; cited from earlier work

T1 sequence (Q14524 whole entry): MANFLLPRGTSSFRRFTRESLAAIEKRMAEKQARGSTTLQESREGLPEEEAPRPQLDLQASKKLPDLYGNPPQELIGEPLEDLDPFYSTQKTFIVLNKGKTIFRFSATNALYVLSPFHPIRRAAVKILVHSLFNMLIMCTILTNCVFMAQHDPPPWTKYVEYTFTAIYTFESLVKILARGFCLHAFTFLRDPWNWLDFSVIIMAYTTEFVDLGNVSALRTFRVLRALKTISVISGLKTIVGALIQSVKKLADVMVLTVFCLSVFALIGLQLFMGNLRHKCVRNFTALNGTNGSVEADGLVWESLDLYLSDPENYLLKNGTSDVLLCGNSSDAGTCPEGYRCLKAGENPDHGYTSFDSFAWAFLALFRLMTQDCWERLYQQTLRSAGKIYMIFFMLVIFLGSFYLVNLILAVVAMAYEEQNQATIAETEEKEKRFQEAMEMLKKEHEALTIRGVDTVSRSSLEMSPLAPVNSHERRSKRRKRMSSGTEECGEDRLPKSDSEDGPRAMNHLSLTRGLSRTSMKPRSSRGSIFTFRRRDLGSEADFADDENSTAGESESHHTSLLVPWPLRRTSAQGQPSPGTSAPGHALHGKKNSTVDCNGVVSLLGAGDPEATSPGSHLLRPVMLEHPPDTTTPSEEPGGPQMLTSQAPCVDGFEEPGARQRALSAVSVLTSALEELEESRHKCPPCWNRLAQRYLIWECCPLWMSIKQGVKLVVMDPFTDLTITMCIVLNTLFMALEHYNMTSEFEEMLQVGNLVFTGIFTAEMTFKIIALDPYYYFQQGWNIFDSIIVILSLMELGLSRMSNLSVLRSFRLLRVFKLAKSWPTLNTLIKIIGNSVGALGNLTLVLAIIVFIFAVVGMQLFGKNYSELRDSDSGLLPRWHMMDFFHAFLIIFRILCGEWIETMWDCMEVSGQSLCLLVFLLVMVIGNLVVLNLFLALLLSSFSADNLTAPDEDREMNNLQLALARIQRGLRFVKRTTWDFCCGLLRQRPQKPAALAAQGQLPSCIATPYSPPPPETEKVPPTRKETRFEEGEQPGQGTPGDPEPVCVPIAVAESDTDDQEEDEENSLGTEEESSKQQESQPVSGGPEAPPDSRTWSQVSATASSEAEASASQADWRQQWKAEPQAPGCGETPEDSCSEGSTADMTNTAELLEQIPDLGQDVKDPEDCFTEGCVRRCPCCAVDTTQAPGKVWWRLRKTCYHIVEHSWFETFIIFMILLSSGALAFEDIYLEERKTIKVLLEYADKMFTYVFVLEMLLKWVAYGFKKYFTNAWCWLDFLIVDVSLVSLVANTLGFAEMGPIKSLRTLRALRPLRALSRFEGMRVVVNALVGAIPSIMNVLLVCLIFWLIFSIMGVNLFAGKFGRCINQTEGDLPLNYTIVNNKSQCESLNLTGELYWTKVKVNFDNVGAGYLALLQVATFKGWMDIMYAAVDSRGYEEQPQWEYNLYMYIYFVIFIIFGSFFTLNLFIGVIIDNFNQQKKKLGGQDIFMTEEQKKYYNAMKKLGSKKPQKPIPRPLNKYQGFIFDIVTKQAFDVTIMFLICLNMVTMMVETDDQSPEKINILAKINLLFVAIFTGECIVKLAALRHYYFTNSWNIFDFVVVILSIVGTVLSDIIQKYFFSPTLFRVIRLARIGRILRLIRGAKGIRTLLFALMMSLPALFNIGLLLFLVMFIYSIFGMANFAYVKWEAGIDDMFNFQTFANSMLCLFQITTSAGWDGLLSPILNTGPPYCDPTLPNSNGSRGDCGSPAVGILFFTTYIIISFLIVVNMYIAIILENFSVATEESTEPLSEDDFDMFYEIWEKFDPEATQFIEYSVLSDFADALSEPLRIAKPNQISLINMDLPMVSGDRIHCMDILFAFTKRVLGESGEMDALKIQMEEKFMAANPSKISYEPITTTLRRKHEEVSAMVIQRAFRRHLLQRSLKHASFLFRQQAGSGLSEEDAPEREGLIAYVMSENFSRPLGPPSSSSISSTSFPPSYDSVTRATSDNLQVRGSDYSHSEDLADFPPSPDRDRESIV

Compound: C=CC1=C(C)c2cc3[n-]c(cc4[n-]c(cc5nc(cc1n2)C(C)=C5C=C)c(C)c4CCC(=O)O)c(CCC(=O)O)c3C.[Fe+2] [heme, reference compound]
- impact on hNaV1.5 channels [1]: no impact

Compound: C=CC1=C(C)c2cc3[n-]c(cc4[n-]c(cc5nc(cc1n2)C(C)=C5C=C)c(C)c4CCC(=O)O)c(CCC(=O)O)c3C.[Cu+2] [CuPpIX, copper-PpIX]
- effect on hNaV1.5 current [2]: failed to affect the current
- effect on hNaV1.5 current ([2]; listed as Cu(II)PpIX): completely ineffective

Compound: NC1=N[C@H](O)[C@H]2[C@H]3O[C@]4(O)O[C@@H]([C@@H](O)[C@@]2(N1)[C@@H]4O)[C@]3(O)CO [TTX, tetrodotoxin, reference compound]
- gap closure in wound-healing assay [3]: only a weak effect
- remaining endogenous NaV-channel current [4]: 3.5 ± 0.5%

Compound: COc1ccccc1OCC(O)CN1CCN(CC(=O)Nc2c(C)cccc2C)CC1 (stereo not drawn) [ranolazine]
- lung colonization by the cancer cells [5]: reduced lung colonization by the cancer cells
- tolerability [5]: well-tolerated

Compound: tin-PpIX [SnPpIX]
- gap closure (cell migration) in wound-healing assay [3]: failed to influence gap closure
- cell migration in wound-healing assay [6]: neither SnPpIX nor PpIX had any impact
- cell migration in wound-healing assay [7]: neither SnPpIX nor PpIX had any impact
- effect on hNaV1.5 current [2]: failed to affect the current
- effect on hNaV1.5 current ([2]; listed as Sn(IV)PpIX): completely ineffective

Compound: C=CC1=C(C)C2=Cc3c(C=C)c(C)c4[n]3[Ga][n]3c(c(C)c(CCC(=O)O)c3=CC3=NC(=C4)C(C)=C3CCC(=O)O)=CC1=N2 [GaPpIX, gallium-PpIX]
- effect on BKCa current [8]: did not block BKCa channels
- gap closure (cell migration) in wound-healing assay [3]: diminished gap closure, albeit less potently than MgPpIX
- remaining peak inward current [2]: about 10%
- IC50 [2]: 0.117 ± 0.008 µM

Compound: C=CC1=C(C)c2cc3[n-]c(cc4nc(cc5[n-]c(cc1n2)c(C)c5C=C)C(C)=C4CCC(=O)O)c(CCC(=O)O)c3C.[Zn+2] [ZnPpIX, zinc-PpIX]
- effect on BKCa current [8]: minor effect
- gap closure (cell migration) in wound-healing assay [3]: diminished gap closure, albeit less potently than MgPpIX
- remaining peak inward current [2]: about 10%
- IC50 [2]: 0.106 ± 0.011 µM

Compound: C=CC1=C(C)c2cc3[nH]c(cc4nc(cc5[nH]c(cc1n2)c(C)c5CCC(=O)O)C(CCC(=O)O)=C4C)c(C)c3C=C [PpIX, Protoporphyrin IX, reference compound]
- gap closure (cell migration) in wound-healing assay [3]: failed to influence gap closure
- cell migration in wound-healing assay [6]: neither SnPpIX nor PpIX had any impact
- cell migration in wound-healing assay [7]: neither SnPpIX nor PpIX had any impact

Compound: C=CC1=C(C)c2cc3[n-]c(cc4[n-]c(cc5nc(cc1n2)C(C)=C5C=C)c(C)c4CCC(=O)[O-])c(CCC(=O)[O-])c3C.[H+].[H+].[Mn+2] [MnPpIX, manganese-PpIX]
- effect on hNaV1.5 current [2]: slightly less potent than hemin
- IC50 [2]: 0.672 ± 0.018 µM

Compound: C=Cc1c(C)c2cc3nc(c4c5[n-]c(cc6nc(cc1[n-]2)C(C)=C6CC)c(C)c5C(=O)[C@@H]4C(=O)OC)[C@@H](CCC(=O)OC/C=C(\C)CCC[C@H](C)CCC[C@H](C)CCCC(C)C)[C@@H]3C.[Mg+2] [Chlorophyll-A, reference compound]
- effect on hNaV1.5 current [2]: no detectable effect

Compound: Fe^3+-protoporphyrin IX [hemin]
- gap closure (cell migration) in wound-healing assay [3]: diminished gap closure, albeit less potently than MgPpIX
- remaining peak inward current [2]: ~ 20%
- reestablishment of inhibition, times slower than MgPpIX ([2]; hNaV1.5, after prepulse-induced reversal): about 8 times
- IC50 [2]: 0.231 ± 0.018 µM
- effect on BKCa channel [9]: effectively inhibited
- IC50 ([1]; read-out: apparent half-inhibitory constant (IC50) for hNaV1.5-mediated Na+ current, extracellularly applied): ~0.1 µM

Compound: C=CC1=C(C)c2cc3[n-]c(cc4[n-]c(cc5nc(cc1n2)C(C)=C5C=C)c(C)c4CCC(=O)[O-])c(CCC(=O)[O-])c3C.[H+].[H+].[Ni+2] [NiPpIX, nickel-PpIX]
- effect on BKCa current [8]: did not block BKCa channels
- gap closure (cell migration) in wound-healing assay [3]: failed to influence gap closure
- effect on hNaV1.5 current [2]: failed to affect the current
- effect on hNaV1.5 current ([2]; listed as Ni(II)PpIX): completely ineffective
